The source of these data is publication PMC11778240, “Synthesis and preclinical evaluation of tigilanol tiglate analogs as latency-reversing agents for the eradication of HIV” (Science Advances, 2025).

SMILES strings stand for the structures.

One assay deals with T1, PKC-β fused to GFP (Homo sapiens, UniProt P05771).
T1 construct: host or cells: CHO-K1
Nature of the assay: PKC-GFP translocation assay in CHO-K1 cells (confocal microscopy). The format is cell-based. Particulars: 500 nM, within 10 min. The text has this:
(§1) Using confocal microscopy, this assay allows us to visualize, in real time, cell permeation and the ligand-induced translocation of specific PKC isoforms from the cytosol to the membranes of the cell—the hallmark of PKC activation ([29], [68]). […] In alignment with past studies on the activation of PKC in CHO-K1 cells ([22], [65], [69]), we observed strong plasma membrane translocation of PKC-β (Fig. 7C).
(§2) Agar stabs of DH5-alpha (high copy) bacterial cells, containing plasmids for expression of mammalian PKC-δ (Plasmid #: 178856) and PKC-β (Plasmid #: #112265) fused to EGFP under constitutive mammalian promoters CAG and CMV, respectively, were purchased from Addgene.
(§3) Upon receipt, these stabs were incubated at 37 °C in 5% CO2 for 24 hours to allow sufficient bacterial growth. Following incubation, a sterile pipette tip was utilized to streak bacteria onto LB agar plates that are positive for the respective antibiotic that selects for each plasmid. For bacteria containing Plasmid #: 178856, bacteria were streaked onto CellPro™ LB (Lennox) + Ampicillin 100 μg/ml while bacteria containing Plasmid #: 112265 was streaked onto CellPro™ LB (Miller) + Kanamycin 50 μg/ml and incubated for 24 hours at 37 °C in 5% CO2 in order to isolate single colonies of bacteria. Single, isolated bacterial colonies were selected utilizing a sterile pipette tip and placed in polypropylene culture tubes with vented stoppers containing 2mL of LB Broth Miller (Catalog No. BP1426-500) and the respective antibiotic for each plasmid at the recommended concentration of 100 μg/ml for ampicillin and 50 μg/ml for kanamycin. Following inoculation, these liquid cultures were placed on a shaker at 37 °C at 225rpm for 24 hours. The next day, the plasmids were sequestered and purified from the bacteria utilizing the Thermo Scientific™ GeneJET Plasmid Miniprep Kit (Catalog No. K0502).
(§4) PKC-β/PKC-δ plasmid purification
(§5) To sequester and purify plasmid from each culture tube, bacteria was resuspended in culture and transferred to sterile 1.7mL microcentrifuge tubes with 1 mL of bacteria placed into each tube. To harvest the bacteria, microcentrifuge tubes were placed in a microcentrifuge and spun at 8000 rpm for 2 minutes at room temperature. Note that all subsequent centrifugations were performed in a tabletop microcentrifuge at room temperature. Following centrifugation, the supernatant was decanted and 250 μL of Resuspension solution was added to the pelleted cells and vortexed.
(§6) Afterwards, 250 μL of Lysis Solution was added to the resuspended bacterial cells and tubes were inverted 4-6 times and allowed to incubate for no more than 5 minutes to avoid denaturation of the plasmid DNA. After lysing the bacterial cells, 350 μL of Neutralization Solution was immediately added and tubes were inverted 4-6 times. Tubes were then centrifugated for 5 minutes at 14,000 rpm to pellet the cell debris and chromosomal DNA. The supernatant was then carefully aspirated using a pipette, taking care not to distribute the white precipitate of cell and DNA debris and transferred to the GeneJET spin columns, provided in the GeneJET Miniprep Kit. The spin columns were subsequently centrifugated for 1 minute, the flow-through was discarded, and the column was placed back into the same collection tube. 500 μL of Wash Solution, diluted with 96% ethanol, was added to the column, and the column was centrifugated for 1 minute at 14,000 rpm.
(§7) The flow-through was discarded and the column was placed back into the same collection tube.
(§8) This wash process was repeated a second time, after which the spin columns were centrifugated for an additional 1 minute to ensure all residual Wash solution was removed from the plasmids.
(§9) The GeneJET spin columns were then transferred to new 1.7mL microcentrifuge tubes, and 50 μL of Elution Buffer was added to the center of the spin column to allow optimal elution of the plasmid
(§10) DNA. Before centrifugating for 2 minutes, the columns were allowed to incubate for 2 minutes at […]
(§11) room temperature. […]

The target in the next assay is T2, PKC-δ fused to GFP (Homo sapiens, UniProt Q05655).
T2 construct: host or cells: CHO-K1
The description is as above. The following applies: 1500 nM, within 10 min. The format is cell-based.
Text: as §1, §2, §3, §4, §5, §6, §7, §8, §9, §10, §11

For another assay, the system named is tumor necrosis factor–α. Briefly: TNF-α ELISA, A549 cells. The class given is cell-based, Human. The following applies: for TNF-α (ELISA): 24 hours, lowest detectable limit 3.5 pg/ml. In general terms: ELISA stands for enzyme-linked immunosorbent assay.

T1 sequence (P05771 whole entry, the tested form may be a part): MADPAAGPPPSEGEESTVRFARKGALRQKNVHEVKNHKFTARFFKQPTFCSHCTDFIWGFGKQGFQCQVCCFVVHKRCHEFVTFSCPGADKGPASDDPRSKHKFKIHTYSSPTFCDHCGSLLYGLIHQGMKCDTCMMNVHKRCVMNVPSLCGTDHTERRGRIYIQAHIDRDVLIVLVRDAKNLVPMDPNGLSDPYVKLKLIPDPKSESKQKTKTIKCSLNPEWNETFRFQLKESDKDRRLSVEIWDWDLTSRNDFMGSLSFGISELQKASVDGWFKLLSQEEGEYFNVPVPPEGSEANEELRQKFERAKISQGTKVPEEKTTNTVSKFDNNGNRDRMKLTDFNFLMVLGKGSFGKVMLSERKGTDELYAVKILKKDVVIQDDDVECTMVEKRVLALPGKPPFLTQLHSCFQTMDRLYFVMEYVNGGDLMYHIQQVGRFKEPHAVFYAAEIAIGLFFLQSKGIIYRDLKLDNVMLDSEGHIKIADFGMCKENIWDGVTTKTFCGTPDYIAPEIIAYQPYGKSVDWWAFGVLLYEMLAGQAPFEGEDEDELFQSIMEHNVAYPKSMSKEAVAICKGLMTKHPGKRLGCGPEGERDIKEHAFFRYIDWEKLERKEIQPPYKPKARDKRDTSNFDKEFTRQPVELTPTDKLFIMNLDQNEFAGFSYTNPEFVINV
T2 sequence (Q05655 whole entry, the tested form may be a part): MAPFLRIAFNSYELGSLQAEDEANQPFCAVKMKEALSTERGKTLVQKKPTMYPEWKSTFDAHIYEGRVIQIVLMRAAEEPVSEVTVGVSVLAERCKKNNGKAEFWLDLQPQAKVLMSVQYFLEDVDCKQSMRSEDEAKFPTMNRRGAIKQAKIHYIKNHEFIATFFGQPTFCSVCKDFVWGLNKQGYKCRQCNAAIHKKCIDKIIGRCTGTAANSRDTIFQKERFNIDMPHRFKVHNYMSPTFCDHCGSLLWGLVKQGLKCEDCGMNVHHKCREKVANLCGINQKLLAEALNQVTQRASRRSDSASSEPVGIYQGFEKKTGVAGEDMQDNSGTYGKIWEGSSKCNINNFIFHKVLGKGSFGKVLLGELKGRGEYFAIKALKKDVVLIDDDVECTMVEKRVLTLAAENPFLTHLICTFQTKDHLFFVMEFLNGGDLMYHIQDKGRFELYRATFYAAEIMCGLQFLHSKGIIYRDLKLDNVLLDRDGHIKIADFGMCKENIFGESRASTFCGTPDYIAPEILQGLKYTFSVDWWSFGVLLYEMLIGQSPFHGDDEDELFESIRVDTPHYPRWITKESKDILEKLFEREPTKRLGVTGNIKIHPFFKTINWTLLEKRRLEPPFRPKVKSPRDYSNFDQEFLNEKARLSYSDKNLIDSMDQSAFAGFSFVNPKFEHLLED
Experimental for tumor necrosis factor–α: We stimulated A549 cells with SUW402 and SUW431 at the same concentrations used in the NF-κB activation assay: 500 and 50 nM (figs. S1 and S2).
In efforts to replicate the conditions of the in vitro NF -κB assay, 5 x 10^4 A549 cells were plated per well on Corning® 96-well Clear Round Bottom TC-treated Microplates in 180 μl of pre-warmed DMEM (4.5 g/L glucose, 10% FBS, and 1% Pen-Strep-Glutamine (100 X, 50 mg/mL)).
Following incubation at 37 °C in 5% CO2 for approximately 24 hours to allow for cell adherence, 1.8 μl of either SUW402 or SUW431 were added in triplicate to their respective wells to achieve a final compound concentration of either 50 nM or 500 nM, the two concentrations tested in the NF-κB assay. 24 hours after compound addition, the microplate containing cells treated with compound was spun at 1800 rpm for 3 minutes to allow for pelleting of cells and other debris before 150 μL of cellular supernatant was aspirated and transferred to a new Corning® 96 -well Clear Round Bottom TC-treated Microplate. Note that if the supernatant is not meant to be immediately analyzed, the microplate containing cellular supernatant should be paraf ilm, wrapped, and stored at -80 °C. Careful attention should be paid to avoiding freeze-thaw cycles. To quantify cytokine secretion within samples, dilutions were performed using Assay Buffer A included in the LEGEND MAX™ Human IL-8 ELISA Kit (Cat # 431507) and LEGEND MAX™ Human TNF-α ELISA Kit (Cat # 430207), respectively.
Immediately before running the assay, reagents were allowed to come to room temperature and diluted. Note that if the supernatant is frozen, it should be removed at this time and allowed to thaw. The 1X Wash Buffer was prepared by diluting the 20X Wash Buf fer with Invitrogen™ UltraPure™ DNase/RNase-Free Distilled Water. The lyophilized human IL-8 and TNF-α standards were reconstituted by adding the appropriate volume of Assay Buffer A to prepare the 20 ng/mL standard stock solutions. The reconstituted stand ards were allowed to sit at room temperature for 20 minutes before being gently vortexed to ensure complete mixing. To generate a standard curve for each cytokine, 500 μL of a 1,000 pg/mL top standard was prepared after which six two -fold serial dilutions of the top standard were performed in 1.7 mL microcentrifuge tubes using Assay
The Anti-Human IL-8 pre-coated 96-well Strip Microplate and Anti-Human TNF-α pre-coated 96-well Strip Microplate were each washed 4 times by hand. With each wash, at least 300 μL of 1X Wash Buffer was added per well and aspirated, and any residual buffer was removed by blotting the plate on an absorbent paper towel. Following this wash cycle, 50 μL of Assay Buffer A was added to each well that would ultimately contain sample or standard. To rigorously ensure no cellular debris was left in the analyte, an ad ditional centrifugation step was performed (1800 rpm for 3 minutes) before transferring 50 μL of sample or standard dilutions to the appropriate wells.
Adhesive plate sealers were utilized to cover the plates, prevent contamination, and avoid sample evaporation after which each plate was placed on a cell shaker and allowed to shake at room temperature at 200 rpm for 2 hours. Following incubation, the contents of each plate were discarded and subsequently washed by hand 4 times with 1X Wash Buffer, as previo usly reported. […]

Consider `C/C=C(\C)C(=O)O[C@@H]1[C@@H](C)[C@@]2(O)[C@H]([C@@H]3C(C)(C)[C@]13OC(=O)[C@@H](C)CC)[C@@H]1O[C@]1(CO)[C@@H](O)[C@]1(O)C(=O)C(C)=C[C@H]12` [EBC-46, Tigilanol tiglate], for which the “translocation of PKC-β-GFP in words” value at PKC-β fused to GFP is listed as “effectively translocate PKC-β at 500 nM”. Besides, the “translocation of PKC-δ-GFP in words” value at PKC-δ fused to GFP is recorded as “selectively induced perinuclear translocation of PKC-δ”.

Consider `C/C=C(\C)C(=O)O[C@@H]1[C@@H](C)[C@@]2(O)[C@@H](C=C(CO)C[C@]3(O)C(=O)C(C)=C[C@@H]23)[C@@H]2C(C)(C)[C@]12OC(=O)[C@@H](C)CC` [SUW402], for which the “TNF-α (ELISA)” value with tumor necrosis factor–α (50 nM) and in the assay on tumor necrosis factor–α (500 nM) was below 3.5 pg/mL throughout. Besides, the “tumor necrosis factor–α production in words” value in the assay with tumor necrosis factor–α (500 and 50 nM) is reported as “did not produce detectable levels of tumor necrosis factor–α at either concentration”.

For `CC[C@H](C)C(=O)O[C@@]12[C@H](OC(C)(C)C)[C@@H](C)[C@@]3(O)[C@H]([C@@H]1C2(C)C)[C@@H]1O[C@]1(CO)[C@@H](O)[C@]1(O)C(=O)C(C)=C[C@H]13` [SUW430], the “translocation of PKC-β-GFP in words” value on PKC-β fused to GFP was “effectively translocate PKC-β at 500 nM”. Moreover, the “translocation of PKC-δ-GFP in words” value on PKC-δ fused to GFP was “selectively induced perinuclear translocation of PKC-δ”.

As for `C/C=C(\C)C(=O)O[C@@H]1[C@@H](C)[C@@]2(O)[C@H]([C@@H]3C(C)(C)[C@]13OC(=O)Cc1cccc3ccccc13)[C@@H]1O[C@]1(CO)[C@@H](O)[C@]1(O)C(=O)C(C)=C[C@H]12` [SUW431], at PKC-β fused to GFP, the “translocation of PKC-β-GFP in words” value is “effectively translocate PKC-β at 500 nM”. For the same compound, the “translocation of PKC-δ-GFP in words” value at PKC-δ fused to GFP is “strong perinuclear and plasma membrane translocation of PKC-δ”. For the same compound, the “TNF-α (ELISA)” value with tumor necrosis factor–α (50 nM) is 4.4 pg/mL; in the assay with tumor necrosis factor–α (500 nM) it was 8.4 pg/mL.
